A value given as a limit tells only on which side of the number the result lay.

The target in the test is Recombinant human HSD17B13 (Homo sapiens (Human), UniProt Q7Z5P4). The test is described as follows: HSD17B13 rapid-fire mass spectrometry assay (RF/MS assay). Type of test: biochemical. Particulars: inhibition of HSD17B13; LTB4 10 μM, NAD+ 0.5 mM, RT 3 h; IC50 ranges A-E. Put shortly: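 Product 12-oxo-LTB4 and substrate LTB4 quantified by RapidFire triple-quad MS in negative mode, giving percent conversion. Reaction: 80 nM recombinant hHSD17B13, 10 μM LTB4, 0.5 mM NAD+, compound up to 100 μM, pH 7.5, RT, 3 h. Variable-slope fit gave IC50; run in duplicate.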
Chain of Recombinant human HSD17B13 (Q7Z5P4 20-300): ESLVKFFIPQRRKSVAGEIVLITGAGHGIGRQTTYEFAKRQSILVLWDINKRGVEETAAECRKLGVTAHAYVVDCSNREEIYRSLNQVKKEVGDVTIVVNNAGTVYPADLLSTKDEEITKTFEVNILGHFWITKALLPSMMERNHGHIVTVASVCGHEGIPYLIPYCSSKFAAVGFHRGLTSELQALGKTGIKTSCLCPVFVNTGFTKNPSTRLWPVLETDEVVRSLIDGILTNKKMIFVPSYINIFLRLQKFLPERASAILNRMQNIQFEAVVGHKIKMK
The IC50 is the point on the concentration scale where inhibition reaches its midpoint. In the case of `CCC[C@H]1CC[C@H](C2CCC(c3nc(S(=O)(=O)Nc4ccc(C(=O)O)cc4OC)cs3)CC2)CC1` (stereo partly drawn) [Example 504], the IC50 is 100 to 500 nM.

As to `O=C(O)c1ccc(NS(=O)(=O)c2cnc(-c3ccc(F)cc3)s2)s1` [Example 77], the half-maximal inhibitory concentration (IC50) lay in the range of 1000 to 100000 nM.

`COc1cc(C(=O)O)ccc1NS(=O)(=O)c1csc(C2CCC(c3ccccc3)CC2)n1` (single isomer, unassigned) [Example 369]: the IC50 lay in the range of 100 to 500 nM.

For the molecule `COc1cccc(C#Cc2nc(S(=O)(=O)Nc3ccc(C(=O)O)cc3OC)cs2)c1` [Example 190], the IC50 is less than 100 nM.

Take `COc1cc(C(=O)O)ccc1NS(=O)(=O)c1csc(C2=CCC(c3ccccc3)CC2)n1` (stereo not drawn) [Example 354]: the IC50 was less than 100 nM.

On to `COc1cc(C(=O)O)c(F)cc1NS(=O)(=O)c1cnc(-c2ccc(C3=CCC(C(F)(F)F)CC3)cc2)s1` (stereo not drawn) [Example 719], for which the IC50 was less than 100 nM.

As for `COc1cc(C(=O)O)c(F)cc1NS(=O)(=O)c1csc(-c2ccc(C(F)(F)F)nc2C2=CCC(C)(C)CC2)n1` [Example 561], the IC50 lay in the range of 1000 to 100000 nM.

Take `COc1cc(C(=O)O)ccc1NS(=O)(=O)c1cccc(-c2ccc(C3CCCCC3)cc2)c1F` [Example 436]: the IC50 was less than 100 nM.

On to `COc1cc(C(=O)O)c(F)cc1NS(=O)(=O)c1csc(-c2ccc([C@H]3CC[C@H](C(F)(F)F)CC3)c(F)c2C)n1` [Example 603], for which the IC50 is less than 100 nM.

`COc1cc(C(=O)O)ccc1NS(=O)(=O)c1csc(-c2ccc(C3=CCCCC3)cc2)n1` [Example 349]: the IC50 is less than 100 nM.

`COc1cc(C(=O)O)ccc1NS(=O)(=O)c1csc(N2CCCC(c3ccc(F)cc3)C2)n1` (stereo not drawn) [Example 292]: the half-inhibitory concentration (IC50) fell in the range of 1000 to 100000 nM.

With `COc1cc(C(=O)O)ccc1NS(=O)(=O)c1cccc(-c2ccc([C@H]3CC[C@H](C(F)(F)F)CC3)cc2)c1F` [Example 475, 4-((2-fluoro-4′-((1r,4r)-4-(trifluoromethyl)cyclohexyl)-[1,1′-biphenyl])-3-sulfonamido)-3-methoxybenzoic acid], the IC50 is less than 100 nM.

As for `CCC1CC=C(c2ccc(-c3nc(S(=O)(=O)Nc4cc(F)c(C(=O)O)cc4OC)cs3)c(C(F)(F)F)c2)CC1` (stereo not drawn) [Example 785], the concentration for half-maximal inhibition (IC50) is less than 100 nM.

On to `COc1cc(C(=O)O)ccc1NS(=O)(=O)c1csc(-c2ccc(-c3ccc(OC(F)(F)F)cc3)cc2)n1` [Example 280], for which the concentration for half-maximal inhibition (IC50) is 100 to 500 nM.

On to `CC[C@H]1CC[C@H](c2ccc(-c3ncc(S(=O)(=O)Nc4cc(F)c(C(=O)O)cc4OC)s3)cc2)CC1` [Example 642], for which the IC50 was 100 to 500 nM.

As to `COc1cc(C(=O)O)c(F)cc1NS(=O)(=O)c1coc(-c2ccc(C3=CCC(C)(C)CC3)cc2C(F)(F)F)n1` [Example 675], the half-inhibitory concentration (IC50) was less than 100 nM.

Consider `COc1cc(C(=O)O)c(F)cc1NS(=O)(=O)c1nc(-c2ccc(C3CCC(C)(C)CC3)cc2)sc1C` [Example 666], for which the IC50 lay in the range of 100 to 500 nM.

For the molecule `COc1cc(C(=O)O)ccc1NS(=O)(=O)c1ccc2ccc(S(=O)(=O)Nc3ccc(C(=O)O)cc3OC)cc2c1` [Example 162], the IC50 was in the range of 100 to 500 nM.

For the molecule `CCCCOc1c(C2CCC(C)(C)CC2)ccc(-c2nc(S(=O)(=O)Nc3cc(F)c(C(=O)O)cc3OC)cs2)c1F` [Example 581], the IC50 is 100 to 500 nM.

Consider `COc1cc(C(=O)O)ccc1NS(=O)(=O)c1csc(C#Cc2ccc([N+](=O)[O-])cc2)n1` [Example 209], for which the IC50 is 100 to 500 nM.

With `COc1cc(C(=O)O)ccc1NS(=O)(=O)N1Cc2nc(C3=CCC(F)(F)CC3)sc2C1` [Example 358], the half-inhibitory concentration (IC50) was in the range of 100 to 500 nM.

For `COc1cc(C(=O)O)c(F)cc1NS(=O)(=O)c1coc(-c2ccc([C@H]3CC[C@H](C(F)(F)F)CC3)cc2C(F)(F)F)n1` [Example 679], the half-inhibitory concentration (IC50) was less than 100 nM.

As for `COc1cc(C(=O)O)c(F)cc1NS(=O)(=O)c1csc(-c2ccc([C@H]3CC[C@H](C(F)(F)F)CC3)cc2)n1` [Example 509], the IC50 was less than 100 nM.

`COc1cc(C(=O)O)c(F)cc1NS(=O)(=O)c1coc(-c2ccc([C@H]3CC[C@@H](C(F)(F)F)CC3)cc2)n1` [Example 493]: the IC50 is less than 100 nM.

The values are drawn from patent US12384753B2, “17-beta-hydroxysteroid dehydrogenase type 13 inhibitors and methods of use thereof” (Enanta Pharmaceuticals, Inc., priority 2021, dated 2025).
